Here are results for 1 sequence from publication PMC10115881, “Disrupting the α-synuclein-ESCRT interaction with a peptide inhibitor mitigates neurodegeneration in preclinical models of Parkinson’s disease” (Nature Communications, 2023).

The subject of test [1] is A53T a-syn expressing HEK293 cells. The test is described as follows: Cell viability with CHMP2B or VPS4 shRNA knockdown, A53T a-syn cells. Also on record: Knockdown effect on cell viability: scale not given here. The test is classed as cell-based, human. The text has this: Fig. 1 Proteomic screens and in vitro validation of hits. A Schematic of the experimental design including proteomic screens, identification and validation of hits, target deconvolution, and evaluation in cell and animal models (created using Servier Medical Art at https://smart.servier.com/). For the cytotoxicity screen, we employed our peptide library to identify peptides that rescue cytotoxicity induced by a-syn overexpression and proteostatic stress (due to MG132 administration). To screen our library for peptides that inhibit a-syn oligomers, we used FACS with a split YFP-a-syn system (cells co-expressing V1S and SV2). B Validation of cell viability effect of peptides in A53T and WT a-syn expressing cells under proteostatic stress as well as controls. MG132 was used at a concentration of 10 μM. Experiments were done in triplicate. Data represent means ± s.d. (unpaired two-tailed t-tests; A53T PDpep1, P = 0.0051; A53T PDpep1.1, P = 0.0002; A53T PDpep1.2, P = 0.0035; A53T PDpep1.3, P < 0.0001; WT a-syn PDpep1.3, P = 0.0008; n = 3). C WT a-syn oligomers as measured by luciferase activity. […] Experiments were done in triplicate. Data represent means ± s.d. (unpaired two-tailed t-tests; PDpep1, P = 0.0008; PDpep1.1, PDpep1.2, PDpep1.3, P < 0.0001; n = 3). D Co-immunoprecipitation experiment with Flag-CHMP2B and GFP-peptides (n = 3). […] E Fluorescence polarization (FP) binding assay of a FITC-labeled PDpep1.3 peptide against CHMP2B. Error bars represent ± s.d. of the fit (n = 5). F Knockdown of CHMP2B or VPS4 in A53T a-syn expressing cells under proteostatic stress. Cell viabilities were measured with cells stably expressing different shRNAs and transfected with Scramble or PDpep1.3 peptide. Experiments were done in triplicate. Data represent means ± s.d. (unpaired two-tailed t-tests; PDpep1.3, P = 0.0005; n = 3). **P < 0.01; ***P < 0.001; ****P < 0.0001. Source data are provided as a Source Data file.
Cells were trypsinized from subconfluent cultures as described earlier, suspended in culture media, and then seeded into triplicate wells of a 96-well plate (100 µl/well) at a density of 1.5 × 10^4 cells per well with standard culture conditions of 5% CO2 at 37 °C. Cells were infected with lentivirus expressing peptide at a MOI of 5 for 72 h or transfected with plasmid for 72 h. Cell Titer-Glo reagent was added to each well (30 µL), according to the manufacturer’s protocol and […].

Test [2] concerns A53T a-syn-CHMP2B interaction. Nature of the test: Co-immunoprecipitation: disruption of a-syn-CHMP2B interaction. The test is classed as cell-based. To be noted: HEK293 co-immunoprecipitation. As for the experimental part:
HEK293T cells were co-transfected with Flag-tagged target protein, HA-tagged source protein, and GFP-tagged peptide or GFP. Cells were lysed 48 h after transfections with radioimmune precipitation assay buffer (50 mM Tris-HCl pH 7.4, 1% Nonidet P-40, 150 mM NaCl, 1 mM EDTA, 10 mM Na3VO4, 10 mM sodium pyrophosphate, 25 mM NaF, 1× protease inhibitor mixture (Sigma)) for 30 min at 4 °C and co-immunoprecipitated with Flag beads (Clontech). The resulting immunocomplexes were analyzed by immunoblot using the appropriate antibodies. Protein samples were separated using 4–20% Mini-PROTEAN Tris-glycine gels (Bio-Rad) transferred to PVDF membranes and blocked in 5% milk containing PBS-Tween-20 (0.1%) for 1 h. PVDF membranes were then incubated with specified primary antibodies followed by incubation with horseradish peroxidase-conjugated secondary antibodies (anti-mouse HRP-linked, Cell Signaling, catalog #7076, 1:5000; anti-rabbit HRP-linked, Cell Signaling, catalog #7074, 1:5000) and detected using enhanced chemiluminescence (GE Healthcare). HA antibodies were obtained from Santa Cruz (catalog #7392, 1:2000), GFP antibodies were purchased from Abcam (catalog #ab290, 1:2000), and Flag antibodies were purchased from Sigma (catalog #A8592, 1:1000).

As to DEEIERQLKALG [PDpep1.3], the “Knockdown effect on cell viability” value in test [1] (CHMP2B shRNA, replicate 1) was 1.187; in test [1] (CHMP2B shRNA, replicate 2), 1.181; in test [1] (CHMP2B shRNA, replicate 3) it was 1.121; in test [1] (No shRNA, replicate 1) it was 1.473; in test [1] (No shRNA, replicate 2), 1.4504; in test [1] (No shRNA, replicate 3), 1.525. Besides, the “Knockdown effect on cell viability” value amounted to 1.3172 in test [1] (VPS4A shRNA, replicate 1); 1.331 in test [1] (VPS4A shRNA, replicate 2); 1.421 in test [1] (VPS4A shRNA, replicate 3); 1.464 in test [1] (VPS4A/B shRNA, replicate 1); 1.542 in test [1] (VPS4A/B shRNA, replicate 2); 1.564 in test [1] (VPS4A/B shRNA, replicate 3). Moreover, the “Knockdown effect on cell viability” value was determined as 1.302 in test [1] (VPS4B shRNA, replicate 1); 1.395 in test [1] (VPS4B shRNA, replicate 2); 1.343 in test [1] (VPS4B shRNA, replicate 3). For the same sequence, in test [1] (shRNA CHMP2B or VPS4A and/or VPS4B), the “Cytoprotective effect under knockdown” value is given as “prevented by CHMP2B knockdown, but not by knockdown of VPS4A and/or VPS4B”. Also, the “Effect on a-syn-CHMP2B interaction” value in test [2] is recorded as “disrupted this a-syn-CHMP2B interaction”.
